According to patent publication US20260217701A1, “SELECTIVE BET INHIBITORS AND USES THEREOF” (Tay Therapeutics Limited, priority 2022, published 2026):
Where “and” joins values, the source holds several entries; their conditions need not be identical. Equal values may be shown once.

System: imiquimod-induced psoriasis
Experiment: Imiquimod-induced psoriasis model
Format: in vivo, mice
Parameters: Spleen Weight / Spleen Weight Ratio: unit not given here
Settings: for PASI Scores: IMI + Apremilast 3 mg/kg; for Mean scores of the presence of erythema on the skin of animals at the area of induction of psoriasis / Mean scores of the presence of induration on the skin of animals at the area of induction of psoriasis / Mean scores of the presence of peeling on the skin of animals at the area of induction of psoriasis: mean ± SEM
From the text: Imiquimod-induced psoriasis is a model of psoriasis in mice that induces psoriasis-like dermatitis. The pathology closes resembles human plaque-type psoriasis and is a valuable tool for testing new therapies against psoriasis. […] Compound A was formulated in a 5% DMSO/40% PEG-400/55% (0.9% NaCl w/v water) solution (Table 2F). Experimental groups for the study are outlined in Table 4. Prior to study initiation, the backs of all animals in the study were depilated to allow for induction of psoriasis and monitoring of disease progression.
Once assigned to experimental groups, on Day 1 and continuing through Day 14, topical imiquimod (IMI; Aldara™ containing 5% Imiquimod) was administered to the dorsal depilated animals, and animals in group 1 received topical administration of Excipial® hydrocream (65 mg). […] Clobetasol was applied topically for animals in group 11.
Body weights were recorded three times a week from Day 1 to Day 8, and daily from Day 8 until the study end at Day 15. At termination on D15 the spleen weight ratio was determined. Disease severity was assessed using the psoriasis area severity index (PASI) daily from Day 8 until study completion on Day 15. The PASI score was calculated based on three parameters (presence of erythema, induration of the skin, and peeling of the skin at the area of induction) on a scale of 0 to 4 (0=no more or absence, 1=low, 2=moderate, 3=high, 4=severe). The PASI score for each animal was calculated as the sum of the score of each parameter measured. The score of the use of enrichment (SUE) was also assessed daily from Day 8 to Day 15. At study completion on Day 15, animal behavior was evaluated using an open field to assess distance travelled, number scratching, and licking and rearing performed in 10 minutes. Upon study termination animals were sacrificed, the spleen was excised and weighed, and blood samples were collected. Serum was isolated from the blood sample for cytokine and other biomarker analysis. IL-1B, IL-6, IL-17, and TNF-α assayed using simple plex technique on an ELLA automated immunoassay system. IL-22 and IL-23 were assayed by ELISA.
The imiquimod-induced model of psoriasis was used to assess the efficacy of Compound A in treating psoriasis. […] Treatment started on Day 8 after induction so reference to day 1 of treatment is to Day 8 and day 7 of treatment is to Day 14.

[1] = IMI-psoriasis model, behavioral evaluation D15, 3 mg/kg, individual animals
[2] = IMI-psoriasis model, behavioral evaluation, 3 mg/kg, individual animals
[3] = IMI-psoriasis model, mice, 3 mg/kg, individual animals
[4] = IMI + 3 mg/kg, D8 (before start of treatment)

Compound: CCOc1cc([C@@H](CS(C)(=O)=O)N2C(=O)c3cccc(NC(C)=O)c3C2=O)ccc1OC [Apremilast, reference compound]
- Body Weight D1 (IMI + 3 mg/kg, Day 1 (before treatment start on Day 8), individual animals, 3 mg/kg, in g (unit assumed)): 18.04 and 18.00 and 18.05 and 18.89 and 15.16 and 17.91 and 18.62 and 18.72
- Body Weight D3 (IMI + 3 mg/kg, Day 3 (before treatment start on Day 8), individual animals, 3 mg/kg, in g (unit assumed)): 15.91 and 16.38 and 17.39 and 17.17 and 13.24 and 16.46 and 17.63 and 16.03
- Body Weight D5 (IMI + 3 mg/kg, Day 5 (before treatment start on Day 8), individual animals, 3 mg/kg, in g (unit assumed)): 16.70 and 17.24 and 17.88 and 17.91 and 13.95 and 16.38 and 17.65 and 16.94
- Body Weight D7 (IMI + 3 mg/kg, Day 7 (before treatment start on Day 8), individual animals, 3 mg/kg, in g (unit assumed)): 16.55 and 16.74 and 17.25 and 17.69 and 15.07 and 16.92 and 17.97 and 17.32
- Body Weight D8 (IMI + 3 mg/kg, Day 8 (first day of treatment), individual animals, 3 mg/kg, in g (unit assumed)): 16.41 and 16.59 and 17.27 and 17.43 and 13.81 and 17.05 and 17.50 and 16.19
- Body Weight D9 (IMI + 3 mg/kg, Day 9, individual animals, 3 mg/kg): 16.75 and 17.41 (2×) and 17.44 and 17.12 and 13.85 and 17.04 and 16.34
- Body Weight D10 (IMI + 3 mg/kg, Day 10, individual animals, 3 mg/kg, in g (unit assumed)): 17.13 and 17.32 and 17.55 and 17.39 and 13.82 and 17.24 and 17.62 and 17.09
- Body Weight D11 (IMI + 3 mg/kg, Day 11, individual animals, 3 mg/kg, in g (unit assumed)): 16.87 and 17.60 and 17.50 and 17.32 and 14.44 and 17.59 and 17.99 and 17.89
- Body Weight D12 (IMI + 3 mg/kg, Day 12, individual animals, 3 mg/kg, in g (unit assumed)): 17.32 and 18.46 and 17.58 and 17.84 and 14.88 and 18.39 and 18.34 and 18.22
- Body Weight D13 (IMI + 3 mg/kg, Day 13, individual animals, 3 mg/kg, in g (unit assumed)): 17.57 and 18.62 and 18.39 and 18.19 and 14.70 and 18.17 and 18.61 and 18.32
- Body Weight D14 (IMI + 3 mg/kg, Day 14, individual animals, 3 mg/kg, in g (unit assumed)): 17.89 and 18.64 and 18.56 and 18.40 and 15.26 and 17.85 and 18.49 and 18.20
- Body Weight D15 (IMI + 3 mg/kg, Day 15, individual animals, 3 mg/kg): 18.27 and 18.85 (2×) and 18.94 and 15.48 and 18.37 and 18.62 and 18.57
- MBWC D1-D8 (IMI + 3 mg/kg, body weight change Day 1 to Day 8 (before treatment), individual animals, 3 mg/kg): −1.63 and −1.41 and −0.78 and −1.46 and −1.35 and −0.86 and −1.12 and −2.53
- MBWC D8-D15 (IMI + 3 mg/kg, body weight change Day 8 to Day 15 (treatment period), individual animals, 3 mg/kg): 1.86 and 2.26 and 1.67 (2×) and 1.42 and 1.32 and 1.12 and 2.38
- PASI Scores (D8 (day treatment started), individual animals): 9 and 7 (4×) and 8 (2×) and 6
- PASI Scores (D9, individual animals): 8 and 5 (2×) and 7 and 6 (3×) and 4
- PASI Scores (D10, individual animals): 6 (2×) and 7 (2×) and 4 (4×)
- PASI Scores (D11, individual animals): 5 (4×) and 4 (4×)
- PASI Scores (D12, individual animals): 3 (4×) and 5 and 2 (2×) and 1
- PASI Scores (D13, individual animals): 1 (3×) and 0 (3×) and 2 (2×)
- PASI Scores (D14, individual animals): 2 and 0 (3×) and 1 (4×)
- PASI Scores (D15, individual animals): 1 (3×) and 0 (5×)
- Use Enrichment D1 (IMI-psoriasis model, D1, 3 mg/kg, per cage (two animals)): 4.0
- Use Enrichment D10 (IMI-psoriasis model, D10, 3 mg/kg, per cage (two animals)): 2.5 and 3.0 and 2.0
- Use Enrichment D11 (IMI-psoriasis model, D11, 3 mg/kg, per cage (two animals)): 3.5 and 4.0 and 3.0
- Use Enrichment D12 (IMI-psoriasis model, D12, 3 mg/kg, per cage (two animals)): 3.5 and 2.5 and 3.0
- Use Enrichment D13 (IMI-psoriasis model, D13, 3 mg/kg, per cage (two animals)): 4.0
- Use Enrichment D14 (IMI-psoriasis model, D14, 3 mg/kg, per cage (two animals)): 4.0
- Use Enrichment D15 (IMI-psoriasis model, D15, 3 mg/kg, per cage (two animals)): 4.0
- Number Licking [1]: 4 (2×) and 5 and 1 and 2 (2×) and 3 (2×)
- Number Licking + Scratching [1]: 5 and 6 and 1 and 2 (2×) and 7 and 3 (2×)
- Number Scratching [1]: 1 (2×) and 0 (5×) and 3
- Distance Traveled [2]: 10 m and 13 m and 8 m and 11 m (2×) and 17 m and 9 m and 15 m
- Number Rearings [2]: 20 and 58 and 21 and 42 and 81 and 13 and 60 and 12
- Use Enrichment Mean D1-D8 (IMI-psoriasis model, mean D1-D8, 3 mg/kg, per cage (two animals)): 2.50 and 2.00
- Use Enrichment Mean D8-D15 (IMI-psoriasis model, mean D8-D15, 3 mg/kg, per cage (two animals)): 3.07 and 3.36 and 2.93
- Spleen Weight [3]: 180.97 and 286.06 and 424.79 and 208.70 and 207.33 and 227.51 and 223.09 and 221.44
- Spleen Weight Ratio [3]: 990.53 and 1517.56 and 2242.82 and 1107.16 and 1339.34 and 1238.49 and 1198.12 and 1192.46
- Mean scores of the presence of erythema on the skin of animals at the area of induction of psoriasis [4]: 2.1 ± 0.1
- Mean scores of the presence of induration on the skin of animals at the area of induction of psoriasis [4]: 3.0 ± 0.0
- Mean scores of the presence of peeling on the skin of animals at the area of induction of psoriasis [4]: 2.5 ± 0.2
- Mean scores of the presence of erythema on the skin of animals at the area of induction of psoriasis (IMI + 3 mg/kg, D9): 1.5 ± 0.2
- Mean scores of the presence of induration on the skin of animals at the area of induction of psoriasis (IMI + 3 mg/kg, D9): 2.3 ± 0.2
- Mean scores of the presence of peeling on the skin of animals at the area of induction of psoriasis (IMI + 3 mg/kg, D9): 2.1 ± 0.2
- Mean scores of the presence of erythema on the skin of animals at the area of induction of psoriasis (IMI + 3 mg/kg, D10): 1.6 ± 0.2
- Mean scores of the presence of induration on the skin of animals at the area of induction of psoriasis (IMI + 3 mg/kg, D10): 2.0 ± 0.2
- Mean scores of the presence of peeling on the skin of animals at the area of induction of psoriasis (IMI + 3 mg/kg, D10): 1.6 ± 0.3
- Mean scores of the presence of erythema on the skin of animals at the area of induction of psoriasis (IMI + 3 mg/kg, D11): 1.4 ± 0.2
- Mean scores of the presence of induration on the skin of animals at the area of induction of psoriasis (IMI + 3 mg/kg, D11): 1.8 ± 0.2
- Mean scores of the presence of peeling on the skin of animals at the area of induction of psoriasis (IMI + 3 mg/kg, D11): 1.4 ± 0.2
- Mean scores of the presence of erythema on the skin of animals at the area of induction of psoriasis (IMI + 3 mg/kg, D12): 0.75 ± 0.2
- Mean scores of the presence of induration on the skin of animals at the area of induction of psoriasis (IMI + 3 mg/kg, D12): 0.9 ± 0.2
- Mean scores of the presence of peeling on the skin of animals at the area of induction of psoriasis (IMI + 3 mg/kg, D12): 1.1 ± 0.1
- Mean scores of the presence of erythema on the skin of animals at the area of induction of psoriasis (IMI + 3 mg/kg, D13): 0.3 ± 0.2
- Mean scores of the presence of induration on the skin of animals at the area of induction of psoriasis (IMI + 3 mg/kg, D13): 0.4 ± 0.2
- Mean scores of the presence of peeling on the skin of animals at the area of induction of psoriasis (IMI + 3 mg/kg, D13): 0.3 ± 0.2
- Mean scores of the presence of erythema on the skin of animals at the area of induction of psoriasis (IMI + 3 mg/kg, D14): 0.0 ± 0.0
- Mean scores of the presence of induration on the skin of animals at the area of induction of psoriasis (IMI + 3 mg/kg, D14): 0.4 ± 0.2
- Mean scores of the presence of peeling on the skin of animals at the area of induction of psoriasis (IMI + 3 mg/kg, D14): 0.4 ± 0.2
- Mean scores of the presence of erythema on the skin of animals at the area of induction of psoriasis (IMI + 3 mg/kg, D15): 0.1 ± 0.1
- Mean scores of the presence of induration on the skin of animals at the area of induction of psoriasis (IMI + 3 mg/kg, D15): 0.1 ± 0.1
- Mean scores of the presence of peeling on the skin of animals at the area of induction of psoriasis (IMI + 3 mg/kg, D15): 0.1 ± 0.1
- Mean PASI Scores in IMI-Psoriasis Model (mice, IMI + 3 mg/kg, D8 (before start of treatment)): 7.4 ± 0.3
- Mean PASI Scores in IMI-Psoriasis Model (mice, IMI + 3 mg/kg, D9): 5.9 ± 0.4
- Mean PASI Scores in IMI-Psoriasis Model (mice, IMI + 3 mg/kg, D10): 5.3 ± 0.5
- Mean PASI Scores in IMI-Psoriasis Model (mice, IMI + 3 mg/kg, D11): 4.5 ± 0.2
- Mean PASI Scores in IMI-Psoriasis Model (mice, IMI + 3 mg/kg, D12): 2.8 ± 0.4
- Mean PASI Scores in IMI-Psoriasis Model (mice, IMI + 3 mg/kg, D13): 0.9 ± 0.3
- Mean PASI Scores in IMI-Psoriasis Model (mice, IMI + 3 mg/kg, D14): 0.8 ± 0.3
- Mean PASI Scores in IMI-Psoriasis Model (mice, IMI + 3 mg/kg, D15): 0.4 ± 0.2
